Assay results published in patent publication US20210059983A1, “METHODS AND MATERIALS FOR IDENTIFYING AND TREATING CANCER” (Mayo Foundation for Medical Education and Research, priority 2018, published 2021).
Entries after “also recorded” stand apart in the source; their conditions may differ.

Key:
RCC cells 769P = experiment: Measurement of 5hmC levels by LC-ESI-MS/MS; type: cell-based; conditions: 769P cells after AA treatment
[1] = tested on: RCC cells (786O) xenografted; experiment: In vivo xenograft study with AA; parameters: species or system immunodeficient NSG mice; conditions: IV AA 1 g/kg per day, 5 days/week, 5 weeks, vs vehicle; n=10 per cohort
Description: RCC cells (786O) were xenografted into immunodeficient NSG mice. After tumors were established, treatment was initiated with tail vein injections: IV AA at 1 g/kg/d or vehicle over 5 weeks (5 days dosing/week), and tumor measurements were conducted.

[2] = target: recombinant TET-2 protein (Homo sapiens, UniProt Q6N021); experiment: Fluorescence quenching of recombinant TET-2 protein (Stern-Volmer); type: binding
Description: The step width was 1 nm, and the integration time was 1 second.
All protein solutions contained 0.5 μM TET2 in PBS buffer.
In this equation, KD was the quenching constant, and [Q] was a defined concentration of ascorbic acid. F^0 and F were the fluorescence intensities (at 328 nm) in absence and presence of ascorbic acid, respectively.

[3] = tested on: ccRCC cells (786 and 769); experiment: Genome wide DNA methylation analysis using the HELP assay; type: cell-based, human
Description: The HELP assay was carried out as described elsewhere ([…] et al., Nucleic Acids Res., 41(16):e157 (2013)). Intact DNA of high molecular weight was corroborated by electrophoresis on 1% agarose gel in all cases. One microgram of genomic DNA was digested overnight with either HpaII or MspI (NEB, Ipswich, Mass.). The following day, the reactions were extracted once with phenol-chloroform and resuspended in 11 μL of 10 mM Tris-HCl pH 8.0. The digested DNA was used to set up an overnight ligation of the JHpaII adapter using T4 DNA ligase. The adapter-ligated DNA was used to carry out the PCR amplification of the HpaII and MspI-digested DNA as described elsewhere ([…] et al., Nucleic Acids Res., 41(16):e157 (2013)). Both amplified fractions were submitted for labeling and hybridization onto a human hg18 custom-designed oligonucleotide array (50-mers) covering 1.3 million HpaII amplifiable fragments (HAF). All microarray hybridizations were subjected to extensive quality control. Uniformity of hybridization was evaluated using a modified version of an algorithm adapted for the NimbleGen platform, and any hybridization with strong regional artifacts was discarded. Bioinformatic analysis was done as described elsewhere (Bhattacharyya et al., Nucleic Acids Res., 41(16):[…] (2013); Suzuki et al., Genome Biol., 11(4):[…] (2010)).

[4] = tested on: TET enzymatic activity in RCC cells (769P and 7860); experiment: In-vitro TET enzymatic activity of nuclear extracts from AA treated RCC cells (ELISA-based Epigenase 5mC Hydroxylase TET Activity kit); conditions: pH neutralized AA, ccRCC cell lines 769P and 7860, short exposure then 24 hour incubation in fresh media
Description: Cells were treated with different concentrations of pH neutralized AA, with or without catalase. Exposure time to 1 mM AA was 2 hours (taking into account the plasma concentration curve with intravenous (i.v.) AA and potential differences between plasma concentrations with that of tumor microenvironment) followed by the cells being washed and incubated in fresh media for 24 hours. Nuclear protein was then isolated from cells using the EpiQuik nuclear extraction kit (Epigentek Group Inc, Farmingdale, N.Y., USA), according to the manufacturer's instructions. TET enzymatic activity was measured by using the Enzyme Linked ImmunoSorbent Assay (ELISA)-based Epigenase 5mC Hydroxylase TET Activity/Inhibition Assay Kit (Fluorometric) according to the manufacturer's instructions. This technique relied on the conversion of methylated products at the bottom of the wells to hydroxymethylated products by the TET enzyme present in the nuclear extract. Thus, the amount of hydroxymethylated products formed was a measure of the TET activity of the nuclear extract harvested from the cells being tested. Incubation time of nuclear lysates was 90 minutes. Six micrograms of nuclear lysate was used per well for measurement of TET activity.

RCC (786O) cells = experiment: Cell viability (Cell Titer Blue); type: cell-based
Description: Cells were incubated at varying concentrations and at various time periods with L-ascorbic acid (Sigma-Aldrich, Cat #50-81-7) with or without catalase at 100 μg/mL (Sigma-Aldrich, Cat #9001-05-2). Viability was assessed by addition of Cell Titer Blue (Promega, Madison, Wis., USA) and measured via Fluostar Omega Microplate reader (BMG Labtech, Offenburg, Germany). […] A protocol modification to counter this interference was done as described elsewhere (Shenoy et al., Laboratory Investigation, 97:494-497 (2017)) and used in this study.

786-O cells [5] = experiment: Flow cytometry for apoptosis (Annexin V/PI); type: cell-based; conditions: AA 1 mM + catalase, assay at 96 hour time point
Description: (§1) 786-O cells were treated with high dose ascorbic acid (+catalase), and apoptosis and cell cycle dynamics were studied at the 96 hour time point. Cells were washed with Annexin buffer solution and stained with both propidium iodide (PI) and FITC-Annexin V (Life Technologies), and assayed on a BD FACS Calibur flow cytometer (BD Biosciences). Apoptosis results were analyzed with BD CellQuest software. For cell cycle analysis, cells were fixed with 70% cold ethanol and subsequently analyzed after PI staining. Analysis was performed using FlowJo software.

786-O cells [6] = experiment: Flow cytometry for cell cycle analysis (PI); type: cell-based; conditions: high dose AA + catalase, 96 hours
Description: as §1

[7] = 0.5 μM TET-2 alone in PBS, 20° C.

Compound | 5hmC (%5hmC) by LC-ESI-MS/MS (RCC cells 769P) | tumor growth [1] | quenching efficiency (Stern-Volmer constant +/−SD) [2, 7] [M⁻¹] | quenching efficiency (Stern-Volmer constant +/−SD) ([2]; 0.5 μM TET-2 in presence of 23 μM 2OG) [M⁻¹] | quenching efficiency (Stern-Volmer constant +/−SD) ([2]; 0.5 μM TET-2 in presence of 2OG and L2HG (23 μM each per FIG. 5D legend)) [M⁻¹] | quenching efficiency (Stern-Volmer constant +/−SD) ([2]; 0.5 μM TET-2 in presence of L2HG (100 μM per FIG. 5D legend)) [M⁻¹] | reduction of the fluorescence emission signal ([2]; 132 μM AA, 0.5 μM TET-2, emission at 328 nm, excitation 280 nm, maximal quenching) [%] | Smad6 promoter methylation ([3]; 786 and 769 ccRCC cells after AA treatment) | global cytosine methylation (HELP assay) ([3]; AA treated vs control ccRCC cells) | TET enzymatic activity [4] | viability, acute (short term exposure) (RCC (786O) cells; high dose AA (millimolar), 24 hours, without catalase) | viability at longer time points (RCC (786O) cells; high dose AA with catalase, longer-term exposure) | acute loss in viability with catalase co-treatment (RCC (786O) cells; high dose AA, 24 hours, with catalase 100 μg/mL) | apoptosis (786-O cells [5]) | cell cycle (G0/G1 arrest) (786-O cells [6])
O=C1O[C@H]([C@@H](O)CO)C(O)=C1O [AA, L-ascorbic acid] | significantly increased; also recorded: increase in 5hmC | significantly reduced rate of ccRCC growth; also recorded: significantly delayed tumor growth | 21.46 ± 0.70 | 18.37 ± 0.80 | 17.34 ± 0.87 | 22.17 ± 0.68 | 90 | demethylated | increased hypomethylation; also recorded: loss of methylation | increased after treatment; also recorded: increase in TET enzymatic activity | Acute loss in viability | reduced viability; also recorded: dose dependent and progressive loss of viability | reversed by catalase treatment | increased apoptosis; also recorded: significant increase in apoptosis | significantly arrested in G0/G1 stage; also recorded: significant increase in G0/G1 arrest
O=C(O)CCC(=O)C(=O)O [2OG] | – | – | 15.66 ± 0.12 | – | – | – | – | – | – | – | – | – | – | – | –
